Results on 27 compounds are retold here after patent publication US20180334436A1 (VIIV HEALTHCARE UK LIMITED, priority 2015, published 2018).

This assay has as its system HIV. Briefly: MT4 assay (anti-HIV activity). It counts as cell-based. The settings on record: Human immunodeficiency virus 1, 96 h, antiviral HIV activity in HTLV-1 transformed cell line MT-4; luciferase read 96 hours later; 10 point dose response. The method, then: Antiviral HIV activity and cytotoxicity values for compounds of the invention from Table 1 were measured in parallel in the HTLV-1 transformed cell line MT-4 based on the method previously described (Hazen et al., 2007, In vitro antiviral activity of the novel, tyrosyl-based human immunodeficiency virus (HIV) type 1 protease inhibitor brecanavir (GW640385) in combination with other antiretrovirals and against a panel of protease inhibitor-resistant HIV (Hazen et al., “In vitro antiviral activity of the novel, tyrosyl-based human immunodeficiency virus (HIV) type 1 protease inhibitor brecanavir (GW640385) in combination with other antiretrovirals and against a panel of protease inhibitor-resistant HIV”, Antimicrob. Agents Chemother. 2007, 51: 3147-3154; and Pauwels et al., “Sensitive and rapid assay on MT-4 cells for the detection of antiviral compounds against the AIDS virus”, J. of Virological Methods 1987, 16: 171-185).
Luciferase activity was measured 96 hours later by adding a cell titer glo (Promega, Madison, Wis.). Percent inhibition of cell protection data was plotted relative to no compound control. Under the same condition, cytotoxicity of the compounds was determined using cell titer Glo™ (Promega, Madison, Wis.). IC50s were determined from a 10 point dose response curve using 3-4-fold serial dilution for each compound, which spans a concentration range >1000 fold.
These values are plotted against the molar compound concentrations using the standard four parameter logistic equation:
y=((Vmax*x̂n)/(K̂n+x̂n))+Y2
Y2=minimum y n=slope factor
Vmax=maximum y x=compound concentration [M]
Usually IC50 stands for the concentration that inhibits the measured activity by half. With `Cc1ccc(-c2c(C)c3c(c(C)c2C(OC(C)(C)C)C(=O)O)CCN(C(=O)c2cccc(F)c2)C3)cc1` (stereo not drawn) [Example 22, 2-(tert-Butoxy)-2-(2-(3-fluorobenzoyl)-5,8-dimethyl-7-(p-tolyl)-1,2,3,4-tetrahydroisoquinolin-6-yl)acetic Acid], the IC50 came to 329 nM.

Take `Cc1ccc(-c2c(C)c3c(c(C)c2C(OC(C)(C)C)C(=O)O)CCN(C(=O)N2CCCCC2)C3)cc1` (stereo not drawn) [Example 23, 2-(tert-Butoxy)-2-(5,8-dimethyl-2-(piperidine-1-carbonyl)-7-(p-tolyl)-1,2,3,4-tetrahydroisoquinolin-6-yl)acetic Acid]: the IC50 was 108 nM.

As to `Cc1ccc(-c2c(C)c3c(c(C)c2[C@H](OC(C)(C)C)C(=O)O)CCN(C(=O)C(C)(C)C)C3)cc1` [Example 24, (S)-2-(tert-Butoxy)-2-(5,8-dimethyl-2-pivaloyl-7-(p-tolyl)-1,2,3,4-tetrahydroisoquinolin-6-yl)acetic Acid], the half-maximal inhibitory concentration (IC50) is 87 nM.

Consider `Cc1ccc(-c2c(C)c3c(c(C)c2[C@H](OC(C)(C)C)C(=O)O)CCN(C(=O)CC(C)(C)C)C3)cc1` [Example 25, (S)-2-(tert-Butoxy)-2-(2-(3,3-dimethylbutanoyl)-5,8-dimethyl-7-(p-tolyl)-1,2,3,4-tetrahydroisoquinolin-6-yl)acetic Acid], for which the IC50 turned out to be 95 nM.

`COc1c(F)cccc1C(=O)N1CCc2c(C)c([C@H](OC(C)(C)C)C(=O)O)c(-c3ccc(C)cc3)c(C)c2C1` [Example 26, (S)-2-(tert-Butoxy)-2-(2-(3-fluoro-2-methoxybenzoyl)-5,8-dimethyl-7-(p-tolyl)-1,2,3,4-tetrahydroisoquinolin-6-yl)acetic Acid]: the IC50 was 61 nM.

In the case of `Cc1ccc(-c2c(C)c3c(c(C)c2[C@H](OC(C)(C)C)C(=O)O)CCN(C(=O)OC(C)(C)C)C3)cc1` [Example 27, (S)-2-(tert-Butoxy)-2-(2-(tert-butoxycarbonyl)-5,8-dimethyl-7-(p-tolyl)-1,2,3,4-tetrahydroisoquinolin-6-yl)acetic Acid], the IC50 amounted to 114 nM.

In the case of `Cc1ccc(-c2c(C)c3c(c(C)c2[C@H](OC(C)(C)C)C(=O)O)CCN(C2CCOCC2)C3)cc1` [Example 28, (S)-2-(tert-Butoxy)-2-(5,8-dimethyl-2-(tetrahydro-2H-pyran-4-yl)-7-(p-tolyl)-1,2,3,4-tetrahydroisoquinolin-6-yl)acetic Acid], the IC50 came out at 378 nM.

With `Cc1ccc(-c2c(C)c3c(c(C)c2[C@H](OC(C)(C)C)C(=O)O)CCN(C2CCCCC2)C3)cc1` [Example 29, (S)-2-(tert-Butoxy)-2-(2-cyclohexyl-5,8-dimethyl-7-(p-tolyl)-1,2,3,4-tetrahydroisoquinolin-6-yl)acetic Acid], the concentration for half-maximal inhibition (IC50) came out at 13 nM.

In the case of `Cc1ccc(-c2c(C)c3c(c(C)c2[C@H](OC(C)(C)C)C(=O)O)CCN(Cc2cccc(F)c2)C3)cc1` [Example 30, (S)-2-(tert-Butoxy)-2-(2-(3-fluorobenzyl)-5,8-dimethyl-7-(p-tolyl)-1,2,3,4-tetrahydroisoquinolin-6-yl)acetic Acid], the half-maximal inhibitory concentration (IC50) is 382 nM.

Turning to `Cc1ccc(-c2c(C)c3c(c(C)c2[C@H](OC(C)(C)C)C(=O)O)CCN(CC2CCCCC2)C3)cc1` [Example 31, (S)-2-(tert-Butoxy)-2-(2-(cyclohexylmethyl)-5,8-dimethyl-7-(p-tolyl)-1,2,3,4-tetrahydroisoquinolin-6-yl)acetic Acid], the IC50 turned out to be 50 nM.

`Cc1ccc(-c2c(C)c3c(c(C)c2[C@H](OC(C)(C)C)C(=O)O)CCN(C2CCCC2)C3)cc1` [Example 32, (S)-2-(tert-Butoxy)-2-(2-cyclopentyl-5,8-dimethyl-7-(p-tolyl)-1,2,3,4-tetrahydroisoquinolin-6-yl)acetic Acid]: the half-maximal inhibitory concentration (IC50) was determined as 96 nM.

On to `Cc1ccc(-c2c(C)c3c(c(C)c2[C@H](OC(C)(C)C)C(=O)O)CCN(CC(C)(C)C)C3)cc1` [Example 33, (S)-2-(tert-Butoxy)-2-(5,8-dimethyl-2-neopentyl-7-(p-tolyl)-1,2,3,4-tetrahydroisoquinolin-6-yl)acetic Acid], for which the IC50 worked out at 37 nM.

Consider `Cc1ccc(-c2c(C)c3c(c(C)c2[C@H](OC(C)(C)C)C(=O)O)CCN(CCc2ccccc2)C3)cc1` [Example 34, (S)-2-(tert-Butoxy)-2-(5,8-dimethyl-2-phenethyl-7-(p-tolyl)-1,2,3,4-tetrahydroisoquinolin-6-yl)acetic Acid], for which the IC50 stood at 165 nM.

With `Cc1ccc(-c2c(C)c3c(c(C)c2[C@H](OC(C)(C)C)C(=O)O)CCN(C(=O)NC2CCCCC2)C3)cc1` [Example 35, (S)-2-(tert-Butoxy)-2-(2-(cyclohexylcarbamoyl)-5,8-dimethyl-7-(p-tolyl)-1,2,3,4-tetrahydroisoquinolin-6-yl)acetic Acid], the 50% inhibitory concentration (IC50) came out at 360 nM.

In the case of `Cc1ccc(-c2c(C)c3c(c(C)c2[C@H](OC(C)(C)C)C(=O)O)CCN(c2ccccc2)C3)cc1` [Example 36, (S)-2-(tert-Butoxy)-2-(5,8-dimethyl-2-phenyl-7-(p-tolyl)-1,2,3,4-tetrahydroisoquinolin-6-yl)acetic Acid], the IC50 is 148 nM.

For `Cc1ccc(-c2c(C)c3c(c(C)c2[C@H](OC(C)(C)C)C(=O)O)CN(C(=O)CC2CCCCC2)CC3)cc1` [Example 37, (S)-2-(tert-butoxy)-2-(2-(2-cyclohexylacetyl)-5,8-dimethyl-6-(p-tolyl)-1,2,3,4-tetrahydroisoquinolin-7-yl)acetic Acid], the IC50 came out at 118 nM.

Take `Cc1ccc(-c2c(C)c3c(c(C)c2[C@H](OC(C)(C)C)C(=O)O)CCN(S(=O)(=O)N2CCCCC2)C3)cc1` [Example 38, (S)-2-(tert-butoxy)-2-(5,8-dimethyl-2-(piperidin-1-ylsulfonyl)-7-(p-tolyl)-1,2,3,4-tetrahydroisoquinolin-6-yl)acetic Acid]: the half-maximal inhibitory concentration (IC50) stood at 23 nM.

On to `Cc1ccc(-c2c(C)c3c(c(C)c2[C@H](OC(C)(C)C)C(=O)O)CCN(CCC2CCCCC2)C3)cc1` [Example 39, (S)-2-(tert-butoxy)-2-(2-(2-cyclohexylethyl)-5,8-dimethyl-7-(p-tolyl)-1,2,3,4-tetrahydroisoquinolin-6-yl)acetic Acid], for which the IC50 stood at 225 nM.

Consider `Cc1ccc(-c2c(C)c3c(c(C)c2[C@H](OC(C)(C)C)C(=O)O)CCN(C2CCC(C)(C)CC2)C3)cc1` [Example 40, (S)-2-(tert-butoxy)-2-(2-(4,4-dimethylcyclohexyl)-5,8-dimethyl-7-(p-tolyl)-1,2,3,4-tetrahydroisoquinolin-6-yl)acetic Acid], for which the IC50 was found to be 11 nM.

As for `Cc1ccc(-c2c(C)c3c(c(C)c2[C@H](OC(C)(C)C)C(=O)O)CCN(S(=O)(=O)c2ccccc2)C3)cc1` [Example 41, (S)-2-(tert-butoxy)-2-(5,8-dimethyl-2-(phenylsulfonyl)-7-(p-tolyl)-1,2,3,4-tetrahydroisoquinolin-6-yl)acetic Acid], the concentration for half-maximal inhibition (IC50) came out at 138 nM.

With `Cc1ccc(-c2c(C)c3c(c(C)c2[C@H](OC(C)(C)C)C(=O)O)CCN(C(=O)c2ccccn2)C3)cc1` [Example 42, (S)-2-(tert-butoxy)-2-(5,8-dimethyl-2-picolinoyl-7-(p-tolyl)-1,2,3,4-tetrahydroisoquinolin-6-yl)acetic Acid], the IC50 stood at 1140 nM.

Take `Cc1ccc(-c2c(C)c3c(c(C)c2[C@H](OC(C)(C)C)C(=O)O)CCN(C(=O)c2cccnc2)C3)cc1` [Example 43, (S)-2-(tert-butoxy)-2-(5,8-dimethyl-2-nicotinoyl-7-(p-tolyl)-1,2,3,4-tetrahydroisoquinolin-6-yl)acetic Acid]: the IC50 came out at 635 nM.

Consider `Cc1ccc(-c2c(C)c3c(c(C)c2[C@H](OC(C)(C)C)C(=O)O)CCN(C(=O)c2ccncc2)C3)cc1` [Example 44, (S)-2-(tert-butoxy)-2-(2-isonicotinoyl-5,8-dimethyl-7-(p-tolyl)-1,2,3,4-tetrahydroisoquinolin-6-yl)acetic Acid], for which the concentration for half-maximal inhibition (IC50) stood at 1010 nM.

Regarding `Cc1ccc(-c2c(C)c3c(c(C)c2[C@H](OC(C)(C)C)C(=O)O)CCN(S(=O)(=O)C2CCCCC2)C3)cc1` [Example 45, (S)-2-(tert-butoxy)-2-(2-(cyclohexylsulfonyl)-5,8-dimethyl-7-(p-tolyl)-1,2,3,4-tetrahydroisoquinolin-6-yl)acetic Acid], the IC50 was 17 nM.

On to `Cc1ccc(-c2c(C)c3c(c(C)c2[C@H](OC(C)(C)C)C(=O)O)CCN(C(=O)C(=O)N2CCCCC2)C3)cc1` [Example 46, (S)-2-(tert-butoxy)-2-(5,8-dimethyl-2-(2-oxo-2-(piperidin-1-yl)acetyl)-7-(p-tolyl)-1,2,3,4-tetrahydroisoquinolin-6-yl)acetic Acid], for which the half-maximal inhibitory concentration (IC50) was 276 nM.

Take `Cc1ccc(-c2c(C)c3c(c(C)c2[C@H](OC(C)(C)C)C(=O)O)CCN(C(=O)C2CCCCC2)C3)cc1` [Example 47, (S)-2-(tert-butoxy)-2-(2-(cyclohexanecarbonyl)-5,8-dimethyl-7-(p-tolyl)-1,2,3,4-tetrahydroisoquinolin-6-yl)acetic Acid]: the IC50 was 51 nM.

For `Cc1ccc(-c2c(C)c3c(c(C)c2[C@H](OC(C)(C)C)C(=O)O)CCN(C(=O)c2ccccc2)C3)cc1` [Example 48, (S)-2-(2-benzoyl-5,8-dimethyl-7-(p-tolyl)-1,2,3,4-tetrahydroisoquinolin-6-yl)-2-(tert-butoxy)acetic Acid], the IC50 was determined as 325 nM.
